Columns and labels:
Format in all cases: in vivo, mouse
[1] = tested on: proinflammatory cytokines and chemokines; test: qRT-PCR of proinflammatory cytokines and chemokines in cortex and hippocampus; settings: 6-MO 5×FAD female mice
Protocol: (§1) Parathyroid hormone (human) was purchased from TOCRIS Bioscience (Cat #3011/1, Abingdon, United Kingdom). WT or 5×FAD mice (both male and female) were treated with PTH1-34 intermittently [once daily injection of hPTH1-34 (50 μg/Kg) or vehicle (0.9% sodium chloride) (as a control) by subcutaneous injection, starting at 2-MO, 5 days per week] as described previously. Mice were then subjected to behavioral tests and sacrificed for examinations of their bone and brain phenotypes at the indicated ages.
Total RNA was extracted from cortex, hippocampus, or cultured astrocytes using a TRizol reagent (Invitrogen, cat #15596-026, Carlsbad, CA, USA) as previously described. Purified RNA (1-5 μg) was used for cDNA synthesis with the Revert Aid First Strand cDNA Synthesis Kit (Thermo Scientific, cat #K1621, Waltham, MA, USA). The cDNA products were subjected to subsequent quantitative PCR (qPCR) using the QuantiFast SYBR Green PCR Kit (QIA-GEN, cat #204057, Hilden, Germany) with a qPCR System (StepOne Plus). Each sample was repeated at least 3 times, and the mRNA level was normalized to GAPDH using the 2^−ΔΔCt method.

[2] = tested on: ATG9A+ dystrophic neurites; test: Co-immunostaining ThioS/ATG9A, plaque-associated dystrophic neurites; settings: cortex and hippocampus, ~6 MO 5×FAD female mice vs Veh
Protocol: as §1
DAPI was used for nucleus staining.

5×FAD mice = test: Novel object recognition (NOR)
Protocol: as §1
Mice (female and male) at the age of ˜5-MO were subjected to behavioral studies. The experimental procedures are described as previously. […] The total arm entries and the number of tri-ads were recorded to quantify the percentage of spontaneous alternation. For novel object recognition (NOR), which tests mouse's memory ability for a novel object, 20 min were recorded to analyze the time to explore the old object vs. the new object of each mouse. […] During test trials, one of the objects was replaced with a new object and mice were free to explore for another 20 min, and the time spent exploring the new object and the old object was recorded. The discrimination index is quantified as the novelty object preference, which is the time spent exploring the new object minus the time exploring the old object over the total exploration time.

osteocalcin = test: Serum osteocalcin ELISA (bone formation marker); settings: 6-MO female 5×FAD vs control mice; 50 μg/Kg s.c. intermittent
Protocol: as §1
Submandibular blood collection was performed in anesthetized mice. A swift lancing motion is used to puncture the vessel. Blood sample (up to 200 μl) was collected with a pipette or other collection tube, allowed to stand at room temperature for 30 min and centrifuged for 15 min at 3000 rpm. Supernatant serum was aliquot and frozen at −80° C. until use. Mouse serum levels of osteocalcin (a marker for bone formation), PYD (pyridinoline, a marker for bone resorption), and PTH were measured using mouse osteocalcin Elisa kit (QUIDEL Corporation), METRA Serum PYD EIA kit (QUIDEL Corporation, San Diego, CA, USA), and mouse PTH Elisa kit (MyBioSource), respectively, following the manufacturers' instruction.

## CC[C@H](C)[C@H](NC(=O)[C@H](CCC(=O)O)NC(=O)[C@H](CO)NC(=O)[C@@H](NC(=O)[C@@H](N)CO)C(C)C)C(=O)N[C@@H](CCC(N)=O)C(=O)N[C@@H](CC(C)C)C(=O)N[C@@H](CCSC)C(=O)N[C@@H](Cc1cnc[nH]1)C(=O)N[C@@H](CC(N)=O)C(=O)N[C@@H](CC(C)C)C(=O)NCC(=O)N[C@@H](CCCCN)C(=O)N[C@@H](Cc1cnc[nH]1)C(=O)N[C@@H](CC(C)C)C(=O)N[C@@H](CC(N)=O)C(=O)N[C@@H](CO)C(=O)N[C@@H](CCSC)C(=O)N[C@@H](CCC(=O)O)C(=O)N[C@@H](CCCN=C(N)N)C(=O)N[C@H](C(=O)N[C@@H](CCC(=O)O)C(=O)N[C@@H](Cc1c[nH]c2ccccc12)C(=O)N[C@@H](CC(C)C)C(=O)N[C@@H](CCCN=C(N)N)C(=O)N[C@@H](CCCCN)C(=O)N[C@@H](CCCCN)C(=O)N[C@@H](CC(C)C)C(=O)N[C@@H](CCC(N)=O)C(=O)N[C@@H](CC(=O)O)C(=O)N[C@H](C(=O)N[C@@H](Cc1cnc[nH]1)C(=O)N[C@@H](CC(N)=O)C(=O)N[C@@H](Cc1ccccc1)C(=O)O)C(C)C)C(C)C [PTH1-34]
[1]; cortex and hippocampus
  expression of upregulated inflammatory cytokines or chemokines (RT-qPCR): largely brought down to nearly normal levels
[1]; cortex
  expression of GM-CSF, RANKL and OPG (RT-qPCR): unaffected
[2]
  ATG9A+ dystrophic neurites: smaller and less dense ATG9A+ dystrophic neurites
5×FAD mice; 5×FAD female mice ~5-MO vs 5×FAD Veh, 50 μg/Kg s.c. intermittent
  NOR, recognition of the novel object (discrimination index): improved recognition of the novel object
5×FAD mice; 5×FAD male mice ~5-MO vs Veh
  NOR, cognitive function in novel object recognition: Little to no improvement
osteocalcin
  serum osteocalcin levels: increased serum osteocalcin levels more in 5×FAD mice than that in control mice

— patent US20240299504A1, “COMPOSITIONS AND METHODS FOR TREATING ALZHEIMERS DISEASE” (priority 2023, published 2024)
